Measurements reported in patent US20060258729A1, “Antibacterial pyrazole carboxylic acid hydrazides” (priority 2002, published 2006).
Values after ≈ are worked out from the molar mass of the structure shown.

What was measured:
[1] = molecular target: T1, B. subtilis pol IIIC (Bacillus subtilis, UniProt P13267); test: DNA polymerase assay, B. subtilis pol IIIC; type: biochemical
T1 construct: made in house

[2] = tested on: Bacillus subtilis strain BD54; test: Inhibition of bacterial growth (MIC), Bs; type: cell-based; details: 16 to 18 hours, 37° C., read-out: Minimum Inhibitory Concentration for Bacterial Growth, Bs
How it was run: (§1)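 Log-phase cultures were diluted to 1×10^5 CFU/mL in LB or BHI medium and exposed to two-fold serial compound dilutions (usually 80-0.078 μg/mL, 11 concentrations) with 1% DMSO final. After shaking incubation at 37° C. for 16 to 18 hours, growth was read as OD at 570 nm.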

[3] = tested on: Escherichia coli strain J53; test: Inhibition of bacterial growth (MIC), Ec; type: cell-based; details: 16 to 18 hours, 37° C., read-out: Minimum Inhibitory Concentration for Bacterial Growth, Ec
How it was run: as §1

T1 sequence (P13267 whole entry): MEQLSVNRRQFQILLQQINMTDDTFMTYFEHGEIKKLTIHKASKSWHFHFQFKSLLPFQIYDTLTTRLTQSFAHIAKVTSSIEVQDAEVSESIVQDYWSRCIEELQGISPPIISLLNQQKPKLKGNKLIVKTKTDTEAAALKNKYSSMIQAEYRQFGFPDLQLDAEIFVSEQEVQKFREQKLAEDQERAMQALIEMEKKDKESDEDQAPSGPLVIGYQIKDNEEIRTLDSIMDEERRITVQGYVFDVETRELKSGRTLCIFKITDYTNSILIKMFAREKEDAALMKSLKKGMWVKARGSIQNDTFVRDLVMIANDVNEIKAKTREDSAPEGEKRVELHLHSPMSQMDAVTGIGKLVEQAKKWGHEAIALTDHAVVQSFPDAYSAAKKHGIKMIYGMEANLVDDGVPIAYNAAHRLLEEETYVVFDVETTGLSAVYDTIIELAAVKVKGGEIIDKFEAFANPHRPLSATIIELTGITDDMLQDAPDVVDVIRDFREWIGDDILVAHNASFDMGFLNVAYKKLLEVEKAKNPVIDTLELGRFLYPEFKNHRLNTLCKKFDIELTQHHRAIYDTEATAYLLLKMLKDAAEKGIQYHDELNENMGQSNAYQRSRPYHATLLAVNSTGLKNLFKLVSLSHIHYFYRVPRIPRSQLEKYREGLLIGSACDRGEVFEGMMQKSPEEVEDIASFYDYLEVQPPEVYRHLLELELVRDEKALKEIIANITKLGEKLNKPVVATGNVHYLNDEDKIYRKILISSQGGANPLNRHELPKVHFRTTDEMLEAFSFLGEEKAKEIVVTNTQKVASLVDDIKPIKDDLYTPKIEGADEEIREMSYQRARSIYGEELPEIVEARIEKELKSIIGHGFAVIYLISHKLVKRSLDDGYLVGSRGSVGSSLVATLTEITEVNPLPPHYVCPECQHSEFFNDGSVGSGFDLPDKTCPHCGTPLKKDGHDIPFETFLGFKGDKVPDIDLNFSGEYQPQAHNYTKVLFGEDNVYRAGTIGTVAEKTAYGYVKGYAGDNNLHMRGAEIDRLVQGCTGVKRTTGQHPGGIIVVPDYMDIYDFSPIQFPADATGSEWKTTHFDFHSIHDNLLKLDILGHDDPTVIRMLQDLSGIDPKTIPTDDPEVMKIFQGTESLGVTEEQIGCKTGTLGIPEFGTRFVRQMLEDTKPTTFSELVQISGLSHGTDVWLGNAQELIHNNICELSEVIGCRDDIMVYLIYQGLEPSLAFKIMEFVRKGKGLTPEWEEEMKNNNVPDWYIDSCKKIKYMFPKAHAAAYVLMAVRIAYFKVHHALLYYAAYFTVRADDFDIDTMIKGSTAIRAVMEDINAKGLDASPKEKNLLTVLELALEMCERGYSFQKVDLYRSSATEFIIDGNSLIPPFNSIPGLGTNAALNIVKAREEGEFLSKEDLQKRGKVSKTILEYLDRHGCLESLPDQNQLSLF

SMILES: COc1ccc(-c2cc(C(=O)NN=Cc3cc(OC)c(OC)c(OC)c3)[nH]n2)cc1 [Compound 17]
- IC50 ([1]; B. subtilis Pol IIIC IC50, 4 dNTPs, in the presence of all four dNTP substrates): 36000 nM
- IC50 ([1]; B. subtilis Pol IIIC IC50, −dATP, in the absence of dATP): 3100 nM
- IC50 ([1]; B. subtilis Pol IIIC IC50, −dCTP, in the absence of dCTP): 2600 nM
- IC50 ([1]; B. subtilis Pol IIIC IC50, −dGTP, in the absence of dGTP): 1800 nM
- MIC [2]: 0.625 µg/mL (≈ 1.52 µM)
- MIC [3]: > 80 µg/mL
